# Entries after “also recorded” stand apart in the source; their conditions may differ. Where two headings read alike, the source gives them in different places.
# What was measured:
# HER2 WT cPAC cell lines = assay: 72 hour drug dose-response, CellTiter-Glo cell viability; assay type: cell-based, canine; conditions: Canis lupus familiaris
# Description: (§1) Sample Collection: Tumors and cell lines from 89 dogs from the Canine Comparative Oncology and Genomics Consortium (CCOGC) (11) and The Ohio State University (OSU) College of Veterinary Medicine Biospecimen Repository were included. Board-certified veterinary pathologists confirmed tumor diagnosis based on histopathology. Tumor and normal tissue samples were flash frozen in liquid nitrogen or formalin-fixed and paraffin-embedded (FFPE). Cell lines were maintained in RPMI 1640 with GlutaMAX™ (Gibco™, Thermo Fisher Scientific, #61870036) supplemented with 10% heat-inactivated fetal bovine serum at 37° C. and 5% CO2 and passaged at 90% confluence. Cell lines with known passage data (except BACA) were sequenced within the first eight passages of derivation and subsequently expanded for phenotypic studies, and were authenticated by IDEXX BioResearch (Columbia, MO) using the Cell Check Canine STR Profile and Interspecies Contamination Test or by NkX2 (or TTF-1) RT-PCR. Human cell lines included BT474 (ATCC #HTB20, HER2 focal amplification) and H1781 (ATCC #CRL-5894, HER2 […]). Blood for cell-free DNA (cfDNA) and germline DNA extraction was collected in 10 ml K2 EDTA Blood tubes (Thermo Fisher Scientific #22-253-145). Plasma separation was performed at room temperature within 1 hour (2× serial centrifugation at 2000 rpm×15 minutes). Plasma aliquots were stored frozen at −80° C. DNA extraction from plasma, white blood cells and tissue was performed with MagMAX Cell-Free DNA Isolation Kit (Thermo Fisher Scientific #A29319), DNeasy Blood and Tissue Kit (QIAGEN #69504) and Qiagen AllPrep DNA/RNA Mini Kit (QIAGEN #80204), respectively.
# (§2) Cells were cultured in RPMI supplemented with 10% FBS and 1% Penicillin/Streptomycin. Luminescence was read using Synergy Mx (Biotek) plate reader. Six replicates were performed for each dose. Curve-fitting and IC50 calculations were performed using GraphPad Prism v7.00 (GraphPad Software).
# (§3) We first assessed differential sensitivity of HER2 V659E and HER2 WT canine lung cancer cell lines to lapatinib (HER2 and EGFR inhibitor) and neratinib (HER2, HER4, and EGFR inhibitor). Five cPAC cell lines (two HER2 V659E and three HER2 WT) were treated with neratinib and four (one HER2 V659E and three HER2 WT) with lapatinib for 72 hours. Two HER2-mutant human cancer cell lines-BT474 (HER2 AMP) and H1781 (kinase domain HER2 G776ins)—were treated as positive drug controls (18, 21) (FIGS. 2B and 6). […] Given that HER2 receptors dimerize with EGFR, we then evaluated differential sensitivity of the five canine cell lines and the human BT474 control line to the EGFR inhibitor, erlotinib.
# [1] = tested on: HER2 V659E cPAC cell lines; assay: as above; assay type: cell-based, canine; conditions: for IC50: Canis lupus familiaris; for sensitivity of HER2 V659E lines relative to HER2 wild-type cell lines: in vitro viability
# Description: as §1, §2, §3
# [2] = tested on: HER2-mutant cell lines (HER2 V659E cPAC lines, BT474, H1781); assay: as above; assay type: cell-based, canine and human; conditions: all HER2-mutant cell lines
# Description: Sample Collection: Tumors and cell lines from 89 dogs from the Canine Comparative Oncology and Genomics Consortium (CCOGC) (11) and The Ohio State University (OSU) College of Veterinary Medicine Biospecimen Repository were included. Board-certified veterinary pathologists confirmed tumor diagnosis based on histopathology. Tumor and normal tissue samples were flash frozen in liquid nitrogen or formalin-fixed and paraffin-embedded (FFPE). Cell lines were maintained in RPMI 1640 with GlutaMAX™ (Gibco™, Thermo Fisher Scientific, #61870036) supplemented with 10% heat-inactivated fetal bovine serum at 37° C. and 5% CO2 and passaged at 90% confluence. […]
# Cells were cultured in RPMI supplemented with 10% FBS and 1% Penicillin/Streptomycin. Luminescence was read using Synergy Mx (Biotek) plate reader. […]
# We first assessed differential sensitivity of HER2 V659E and HER2 WT canine lung cancer cell lines to lapatinib (HER2 and EGFR inhibitor) and neratinib (HER2, HER4, and EGFR inhibitor). […] Given that HER2 receptors dimerize with EGFR, we then evaluated differential sensitivity of the five canine cell lines and the human BT474 control line to the EGFR inhibitor, erlotinib.
# [3] = tested on: p-AKT in OSUK9PAPADO (HER2 WT); assay: Western blot of phospho-AKT and AKT under serum starvation; assay type: cell-based, canine; conditions: 5 doses 20-2000 nmol/L
# Procedure: […]
# (§4) Immunoblot Analyses: Subconfluent cells were serum starved overnight, then treated with 20 nM neuregulin for 15 min prior to harvest. […] Membranes were blocked for 1 hour in LiCor blocking buffer and incubated with primary antibody at 4° C., overnight, followed by fluorescence-conjugated secondary antibodies. […]
# [4] = tested on: p-AKT in OSUK9PAPADRi (HER2 V659E); assay: as above; assay type: cell-based, canine; conditions: 5 doses 20-2000 nmol/L
# Procedure: […]
# as §4
# p-AKT in BT474 (HER2amp) = assay: as above; assay type: cell-based, human; conditions: 5 doses 20-2000 nmol/L
# Procedure: […]
# as §4
# [5] = 72 h, read-out: IC50, viability
SMILES,IC50 (HER2 WT cPAC cell lines; [5]) [nM],"IC50 ([1]; 72 h, read-out: IC50, viability, one of the two HER2 V659E lines, 72 hours) [nM]","IC50 ([1]; 72 h, read-out: IC50, viability, other of the two HER2 V659E lines, 72 hours) [nM]",sensitivity of HER2-mutant canine cell lines ([1]; two HER2-mutant cell lines),"IC50 (HER2 WT cPAC cell lines; HER2 WT cPAC cell lines, 72 hours, both TKIs, read-out: IC50, viability) [nM]","IC50 ([1]; HER2 V659E cPAC cell lines, 72 hours, both TKIs, read-out: IC50, viability) [nM]",sensitivity of HER2 V659E lines relative to HER2 wild-type cell lines [1],IC50 [2] [nM],p-AKT level by Western blot [3],p-AKT level by Western blot [4],"IC50 (HER2 WT cPAC cell lines; 72 h, read-out: IC50, viability, HER2 WT cPAC cell lines, 72 hours, both TKIs) [nM]","IC50 (HER2 WT cPAC cell lines; 72 h, read-out: IC50, viability, HER2WT cells, 72 hours, p=0.0079 vs HER2-mutant) [nM]","IC50 [1, 5] [nM]",p-AKT level by Western blot (p-AKT in BT474 (HER2amp))
C#Cc1cccc(Nc2ncnc3cc(OCCOC)c(OCCOC)cc23)c1 [erlotinib],1100 to 15400,220,1170,One of two HER2-mutant cell lines showed erlotinib sensitivity,–,–,–,–,–,–,–,–,–,–
CS(=O)(=O)CCNCc1ccc(-c2ccc3ncnc(Nc4ccc(OCc5cccc(F)c5)c(Cl)c4)c3c2)o1 [lapatinib],–,–,–,–,> 2500,< 200,selectively sensitive; also recorded: hypersensitivity,–,–,–,–,–,–,–
CCOc1cc2ncc(C#N)c(Nc3ccc(OCc4ccccn4)c(Cl)c3)c2cc1NC(=O)/C=C/CN(C)C [neratinib],–,–,–,–,–,–,selectively sensitive; also recorded: hypersensitivity,< 50,low at all treatment levels,dose-dependent decrease in p-AKT,> 2500,> 2700,< 200,dose-dependent decrease in p-AKT
